Laboratory results reported in patent publication US20250101041A1, “POSITIVE ALLOSTERIC MODULATORS OF THE MUSCARINIC ACETYLCHOLINE RECEPTOR M4” (Vanderbilt University, priority 2022, published 2025).
pEC50: −log10 of the molar value.

Target: T1, human mAChR M4 (Homo sapiens, UniProt P08173)
T1 construct: expressed in transfected cells; host or cells: CHO-K1 (American Type Culture Collection), stably expressing hM4 and Gqi5
T1 sequence (P08173 1-479): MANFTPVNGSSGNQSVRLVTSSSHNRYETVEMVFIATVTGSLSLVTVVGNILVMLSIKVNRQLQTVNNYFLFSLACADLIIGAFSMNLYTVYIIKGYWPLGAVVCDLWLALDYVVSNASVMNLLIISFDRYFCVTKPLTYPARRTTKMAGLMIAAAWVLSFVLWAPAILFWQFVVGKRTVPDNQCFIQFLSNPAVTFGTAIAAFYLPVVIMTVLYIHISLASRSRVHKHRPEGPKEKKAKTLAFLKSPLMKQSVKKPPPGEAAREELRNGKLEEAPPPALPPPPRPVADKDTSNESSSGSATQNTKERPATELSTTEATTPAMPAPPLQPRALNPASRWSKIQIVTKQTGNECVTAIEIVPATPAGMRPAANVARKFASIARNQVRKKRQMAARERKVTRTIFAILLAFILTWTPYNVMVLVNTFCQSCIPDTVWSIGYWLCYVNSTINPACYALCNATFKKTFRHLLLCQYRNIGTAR
Experiment: mAChR M4 cell-based functional assay: calcium mobilization (Fluo-4, FDSS), potentiation of EC20 acetylcholine response in hM4-Gqi5 CHO-K1 cells
Conditions: human M4; for Emax at 30 µM: CHO-K1, % ACh maximum at 30 μM; for pEC50: potentiation of EC20 acetylcholine response, calcium mobilization
In short: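 Readout is the fluorescence-ratio rise at 1 Hz on FDSS, with PAM activity taken as concentration-dependent enhancement of the EC20 acetylcholine response, fitted four-parameter for EC50/Emax. hM4-Gqi5 CHO-K1 cells carried Fluo-4 AM dye; test compounds (11 points, 1:3) preceded EC20 acetylcholine additions at 144 s and 230 s.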

SMILES	Emax at 30 µM	pEC50
Cc1cc2nccc(=O)n2nc1N1CCc2ncc(NS(=O)(=O)C3CC3)cc2C1 [Compound 2-118, N-(6-(8-methyl-4-oxo-4H-pyrimido[1,2-b]pyridazin-7-yl)-5,6,7,8-tetrahydro-1,6-naphthyridin-3-yl)cyclopropanesulfonamide]	48%	5.52
Cc1nc(S(=O)(=O)Nc2cnc3c(c2)CN(c2nn4c(=O)ccnc4cc2C)CC3)cs1 [Compound 2-119, 2-methyl-N-(6-(8-methyl-4-oxo-4H-pyrimido[1,2-b]pyridazin-7-yl)-5,6,7,8-tetrahydro-1,6-naphthyridin-3-yl)thiazole-4-sulfonamide]	31%	
Cc1cc2nccc(=O)n2nc1N1CCc2ncc(NC(=O)C3CC(F)(F)C3)cc2C1 [Compound 2-120, 3,3-difluoro-N-(6-(8-methyl-4-oxo-4H-pyrimido[1,2-b]pyridazin-7-yl)-5,6,7,8-tetrahydro-1,6-naphthyridin-3-yl)cyclobutane-1-carboxamide]	71%	
Cc1cc2nccc(=O)n2nc1N1CCc2ncc(NC(=O)C3(C)CCC3)cc2C1 [Compound 2-121, 1-methyl-N-(6-(8-methyl-4-oxo-4H-pyrimido[1,2-b]pyridazin-7-yl)-5,6,7,8-tetrahydro-1,6-naphthyridin-3-yl)cyclobutane-1-carboxamide]	66%	
Cc1cc2nccc(=O)n2nc1N1CCc2ncc(NC(=O)c3ncco3)cc2C1 [Compound 2-122, N-(6-(8-methyl-4-oxo-4H-pyrimido[1,2-b]pyridazin-7-yl)-5,6,7,8-tetrahydro-1,6-naphthyridin-3-yl)oxazole-2-carboxamide]	44%	5.73
Cc1cc2nccc(=O)n2nc1N1CCc2ncc(Nc3ccnc(F)c3)cc2C1 [Compound 2-123, 7-(3-((2-fluoropyridin-4-yl)amino)-7,8-dihydro-1,6-naphthyridin-6(5H)-yl)-8-methyl-4H-pyrimido[1,2-b]pyridazin-4-one]	92%	7.80
Cc1ccncc1Nc1cnc2c(c1)CN(c1nn3c(=O)ccnc3cc1C)CC2 [Compound 2-124, 8-methyl-7-(3-((4-methylpyridin-3-yl)amino)-7,8-dihydro-1,6-naphthyridin-6(5H)-yl)-4H-pyrimido[1,2-b]pyridazin-4-one]	87%	6.79
Cc1cc2nccc(=O)n2nc1N1CCc2ncc(Nc3ccc(C4CC4)nc3)cc2C1 [Compound 2-125, 7-(3-((6-cyclopropylpyridin-3-yl)amino)-7,8-dihydro-1,6-naphthyridin-6(5H)-yl)-8-methyl-4H-pyrimido[1,2-b]pyridazin-4-one]	58%	
Cc1cc2nccc(=O)n2nc1N1CCc2ncc(Nc3ccc(Cl)nc3)cc2C1 [Compound 2-126, 7-(3-((6-chloropyridin-3-yl)amino)-7,8-dihydro-1,6-naphthyridin-6(5H)-yl)-8-methyl-4H-pyrimido[1,2-b]pyridazin-4-one]	79%	6.58
Cc1cc2nccc(=O)n2nc1N1CCc2ncc(Nc3cnccn3)cc2C1 [Compound 2-127, 8-methyl-7-(3-(pyrazin-2-ylamino)-7,8-dihydro-1,6-naphthyridin-6(5H)-yl)-4H-pyrimido[1,2-b]pyridazin-4-one]	64%	5.60
Cc1cc2nccc(=O)n2nc1N1CCc2ncc(Nc3cncc(F)c3)cc2C1 [Compound 2-128, 7-(3-((5-fluoropyridin-3-yl)amino)-7,8-dihydro-1,6-naphthyridin-6(5H)-yl)-8-methyl-4H-pyrimido[1,2-b]pyridazin-4-one]	82%	7.05
Cc1ncc(CNc2cnc3c(c2)CN(c2nn4c(=O)ccnc4cc2C)CC3)o1 [Compound 2-129, 8-methyl-7-(3-(((2-methyloxazol-5-yl)methyl)amino)-7,8-dihydro-1,6-naphthyridin-6(5H)-yl)-4H-pyrimido[1,2-b]pyridazin-4-one]	105%	6.16
Cc1cc2nccc(=O)n2nc1N1CCc2ncc(NCc3cscn3)cc2C1 [Compound 2-130, 8-methyl-7-(3-((thiazol-4-ylmethyl)amino)-7,8-dihydro-1,6-naphthyridin-6(5H)-yl)-4H-pyrimido[1,2-b]pyridazin-4-one]	87%	6.29
Cc1cc2nccc(=O)n2nc1N1CCc2ncc(NCc3cncn3C)cc2C1 [Compound 2-131, 8-methyl-7-(3-(((1-methyl-1H-imidazol-5-yl)methyl)amino)-7,8-dihydro-1,6-naphthyridin-6(5H)-yl)-4H-pyrimido[1,2-b]pyridazin-4-one]	73%	5.55
Cc1cc(Nc2cnc3c(c2)CN(c2nn4c(=O)ccnc4cc2C)CC3)cnc1Cl [Compound 2-132, 7-(3-((6-chloro-5-methylpyridin-3-yl)amino)-7,8-dihydro-1,6-naphthyridin-6(5H)-yl)-8-methyl-4H-pyrimido[1,2-b]pyridazin-4-one]	93%	6.23
Cc1cncc(Nc2cnc3c(c2)CN(c2nn4c(=O)ccnc4cc2C)CC3)c1 [Compound 2-133, 8-methyl-7-(3-((5-methylpyridin-3-yl)amino)-7,8-dihydro-1,6-naphthyridin-6(5H)-yl)-4H-pyrimido[1,2-b]pyridazin-4-one]	96%	6.74
COc1ccc(Nc2cnc3c(c2)CN(c2nn4c(=O)ccnc4cc2C)CC3)cn1 [Compound 2-134, 7-(3-((6-methoxypyridin-3-yl)amino)-7,8-dihydro-1,6-naphthyridin-6(5H)-yl)-8-methyl-4H-pyrimido[1,2-b]pyridazin-4-one]	90%	6.54
Cc1cc2nccc(=O)n2nc1N1CCc2ncc(Nc3cnccc3Cl)cc2C1 [Compound 2-135, 7-(3-((4-chloropyridin-3-yl)amino)-7,8-dihydro-1,6-naphthyridin-6(5H)-yl)-8-methyl-4H-pyrimido[1,2-b]pyridazin-4-one]	96%	6.95
Cc1cc2nccc(=O)n2nc1N1CCc2ncc(Nc3ccnnc3)cc2C1 [Compound 2-136, 8-methyl-7-(3-(pyridazin-4-ylamino)-7,8-dihydro-1,6-naphthyridin-6(5H)-yl)-4H-pyrimido[1,2-b]pyridazin-4-one]	101%	6.51
COc1cncc(Nc2cnc3c(c2)CN(c2nn4c(=O)ccnc4cc2C)CC3)c1 [Compound 2-137, 7-(3-((5-methoxypyridin-3-yl)amino)-7,8-dihydro-1,6-naphthyridin-6(5H)-yl)-8-methyl-4H-pyrimido[1,2-b]pyridazin-4-one]	98%	6.49
Cc1cc2nccc(=O)n2nc1N1CCc2ncc(Nc3cncc(C(F)(F)F)c3)cc2C1 [Compound 2-138, 8-methyl-7-(3-((5-(trifluoromethyl)pyridin-3-yl)amino)-7,8-dihydro-1,6-naphthyridin-6(5H)-yl)-4H-pyrimido[1,2-b]pyridazin-4-one]	87%	6.13
Cc1cc2nccc(=O)n2nc1N1CCc2ncc(Nc3cncnc3C)cc2C1 [Compound 2-139, 8-methyl-7-(3-((4-methylpyrimidin-5-yl)amino)-7,8-dihydro-1,6-naphthyridin-6(5H)-yl)-4H-pyrimido[1,2-b]pyridazin-4-one]	97%	5.74
COc1ccnc(Nc2cnc3c(c2)CN(c2nn4c(=O)ccnc4cc2C)CC3)n1 [Compound 2-140, 7-(3-((4-methoxypyrimidin-2-yl)amino)-7,8-dihydro-1,6-naphthyridin-6(5H)-yl)-8-methyl-4H-pyrimido[1,2-b]pyridazin-4-one]	56%	6.01
COc1cc(Nc2cnc3c(c2)CN(c2nn4c(=O)ccnc4cc2C)CC3)ccn1 [Compound 2-141, 7-(3-((2-methoxypyridin-4-yl)amino)-7,8-dihydro-1,6-naphthyridin-6(5H)-yl)-8-methyl-4H-pyrimido[1,2-b]pyridazin-4-one]	100%	7.68
Cc1cc2nccc(=O)n2nc1N1CCc2ncc(Nc3cncc(Cl)c3)cc2C1 [Compound 2-142, 7-(3-((5-chloropyridin-3-yl)amino)-7,8-dihydro-1,6-naphthyridin-6(5H)-yl)-8-methyl-4H-pyrimido[1,2-b]pyridazin-4-one]	66%	6.74
Cc1cc2nccc(=O)n2nc1N1CCc2ncc(Nc3ccc(F)nc3C)cc2C1 [Compound 2-143, 7-(3-((6-fluoro-2-methylpyridin-3-yl)amino)-7,8-dihydro-1,6-naphthyridin-6(5H)-yl)-8-methyl-4H-pyrimido[1,2-b]pyridazin-4-one]	82%	6.33
Cc1c(N2CCc3ncc(N4CCOC4=O)cc3C2)nn2c(=O)ccnc2c1C [Compound 2-144, 3-(6-(8,9-dimethyl-4-oxo-4H-pyrimido[1,2-b]pyridazin-7-yl)-5,6,7,8-tetrahydro-1,6-naphthyridin-3-yl)oxazolidin-2-one]	98%	5.80
